Assay results taken from patent US20260199297A1, “FERROPTOSIS INDUCERS TO TREAT CANCER” (The University of Toledo, priority 2022, published 2026).
Where two headings read alike, the source gives them in different places.

How the values were obtained:
NCI-H522 cells [1] = test: Cytotoxicity (methylene blue cell viability), NCI-H522; type: cell-based, human
Method: (§1) Having synthesized the CETZOLE analogs, their cytotoxic activity was evaluated. […] NCI-H522 RV-GFP is the corresponding control with RV-GFP tag, but without SLC7A11 overexpression. […] The cytotoxicity screening was conducted as described previously.
(§2) Cell lines were cultured in a humidified atmosphere containing 10% CO2 in Dulbecco's modified Eagle's medium (Mediatech, Inc) supplemented with 10% fetal bovine serum (Atlanta Biologicals). Cell types used MEFs, HT1080 (human fibrosarcoma cells), NARF2 (osteosarcoma), WI-38 (human embryonic lung fibroblast), MDA MB 231 (breast cancer), HCT-116 (human colon), and NCI-H522 (Non-Small Cell Lung Cancer) cell lines. To determine viability throughout these examples, 5,000 cells were plated per well of a 96-well plate and drugs were added 1 day later. Cells were stained 1 to 3 days later with a saturated solution of methylene blue in 50% ethanol. Plates were rinsed and retained dye was quantified by spectrophotometry. Absorbance was normalized to DMSO and given as 1 or 100% for cell viability. Results are representative of at least two independent experiments. Statistical significance was assessed using the Student's t test. All commercially available chemicals were obtained from Cayman Chemicals unless otherwise noted.

NARF2 cells = test: Cytotoxicity (methylene blue cell viability), NARF2; type: cell-based, human; conditions: read-out: Half maximal inhibitory concentration (IC50), NARF2
Method: as §1, §2

HT-1080 cells = test: Cytotoxicity (methylene blue cell viability), HT-1080; type: cell-based, human
Method: as §1, §2

NCI-H522 cells [2] = type: cell-based; conditions: human, 3 days
Text: FIGS. 10A-10C: Results of live cell imaging.
FIG. 16: Evaluation of ferroptosis-inducing character of CETZOLE probes. A three-day ferroptosis rescue assay of NCI-H522 cells treated with DMSO, 1, RSL3, and CETZOLE analogs, and liproxstatin-1 co-treatment, showing significant ferroptosis inducing probes.
The live cell montage images in FIG. 10A show notable ferroptosis-related morphological changes, such as membrane breakage and floating cell debris in the medium. The NCI-H522 cell viability improved overall when cells were co-treated with the radical scavenger liproxstatin-1 (FIG. 10C). […] To confirm this, flow-cytometry was performed to quantify lipid peroxidation using redox-active BODIPY-C11 (FIGS. 11A-11E).
Overall, CETZOLE probes do induce radical-mediated cell death and are therefore indeed ferroptotic agents.
as §2, with “noted. Compound CETZOLE 1 and the analogs were synthesized as highlighted.” for “noted.”

[3] = test system: MEFs (Mouse Embryonic Fibroblasts); test: Cytotoxicity on normal cell line MEFs; type: cell-based; conditions: read-out: Half maximal inhibitory concentration (IC50), Normal Cell Line Mefs
Method: (§3) To determine cytotoxicity at a therapeutically more relevant concentration, cells were treated at a single concentration of […] (FIG. 12).
as §2

NCI-H522 RV-GFP cells = test: Cytotoxicity (methylene blue cell viability), NCI-H522 RV-GFP control clone; type: cell-based, human; conditions: Table 1, control clone with RV-GFP tag, read-out: Half maximal inhibitory concentration (IC50), NCI-H522 Rv-GFP
Method: as §1, §2

WI38 cells = test: Cytotoxicity on normal cell line WI38; type: cell-based, human
Method: as §3, §2

NCI-H522 cells [4] = test: Flow cytometry BODIPY-C11 lipid ROS measurement; type: cell-based, human; conditions: for speed of cell death (area under graph): NCI-H522; for lipid peroxidation compared to DMSO: NCI-H522, BODIPY-C11, 3 hours
Method: The total cell counts are represented by the area under the graph.
NCI-H522 cells were seeded at 1.5×10^5 cells per 9-cm plate. The next media was replaced with fresh media before treated with drugs along with BODIPY581/591-C11 dye (0.5 μM) (Thermo Fisher). […], and resuspended in 2% FBS containing 1×PBS. Cells were analyzed in FITC channel using a BD LSR Fortessa FAC Scanner. Twenty thousand events per condition were analyzed from three independent samples. The experiments were performed twice, each time with triplicate samples (n=6). Collected data were processed with FlowJo v10 software. Lipid ROS measurement in TR9-7 or NARF2 cells was performed similarly at the indicated conditions as mentioned in the respective figure legends. Where appropriate, dead cells were excluded by gating. When gates were applied, they were identical across samples within an experiment.

MDA-MB-231 cells = test: Cytotoxicity (methylene blue cell viability), MDA-MB-231; type: cell-based
Method: as §1, §2

[5] = test system: NCI-H522 GFP-SLC7A11 #8 cells; test: Cytotoxicity (methylene blue cell viability), NCI-H522 clone overexpressing GFP-SLC7A11; type: cell-based, human
Method: as §1, §2

[6] = test system: NCI-H522 and HT-1080 cancer cell lines, WI38 and MEFs normal cell lines; test: Selective cytotoxicity assay at a single concentration; type: cell-based; set-up: dose or concentration left out as unconfirmed; conditions: NCI-H522, HT-1080, WI38, MEFs
Method: Overall, WI38 cells were the most tolerant to the treatment, whereas MEF cells were partially tolerant and relatively less sensitive than both NCI-H522 and HT-1080 cells. To determine cytotoxicity at a therapeutically more relevant concentration, cells were treated at a single concentration of […] (FIG. 12).
as §2, with “noted. Compound CETZOLE 1 and the analogs were synthesized as highlighted.” for “noted.”

[7] = test system: 60 human cancer cell lines; test: NCI 60 human cancer cell line assay, single dose; type: cell-based; conditions: single dose of 10 μM, 60 cell lines
Method: The cell lines used in this assay belonged to leukemia, non-small-cell lung cancer, colon cancer, CNS cancer, melanoma, ovarian cancer, renal cancer, prostate cancer, and breast cancer. The compounds were first tested at a single dose of 10 μM.

[8] = test system: NCI-H522, NCI-H522 GFP-SLC7A11 #8, NCI-H522 RV-GFP, HT-1080, NARF2 and MDA-MB 231 cell lines; test: Cytotoxicity screening across the tested cell lines; type: cell-based; conditions: summary over all tested cell lines; read-out: IC50 values against the tested cell lines
Method: as §1, §2

[9] = test system: protein bands between 25 kD to 38 kD; test: Competitive binding assay against probe PPd (in-gel fluorescence); set-up: competition of PPd-labelled protein bands, dose-dependent: dose or concentration left out as unconfirmed; conditions: for competition of PPd-labelled protein bands by known ferroptosis inducers: 20 μM concentration, bands 25 kD to 38 kD

`C#Cc1nc(C2=C(C)/C(=N/OCc3ccccc3)CC2)cs1` [compound 23, (E)-3-(2-Ethynylthiazol-4-yl)-2-methylcyclopent-2-en-1-one O-benzyl oxime] gave an IC50 (NCI-H522 cells [1]; Homo sapiens, NCI-H522, Table 2, read-out: Half maximal inhibitory concentration (IC50), Cancer Cell Line NCI-H522) of 1360 ± 110 nM, an IC50 (NCI-H522 cells [1]; Homo sapiens, Table 1, NCI-H522 cancer cell line, read-out: Half maximal inhibitory concentration (IC50), NCI-H522) of 1360 ± 110 nM and an IC50 (NARF2 cells; Homo sapiens, Table 1, NARF2 osteosarcoma cells) of 19300 ± 5900 nM. For the same compound, the IC50 (HT-1080 cells; Homo sapiens, HT-1080, Table 2, read-out: Half maximal inhibitory concentration (IC50), Cancer Cell Line HT1080) was 810 ± 140 nM, the IC50 (HT-1080 cells; Homo sapiens, Table 1, HT-1080 fibrosarcoma cell line, read-out: Half maximal inhibitory concentration (IC50), HT-1080) was 810 ± 140 nM and the “cell viability on liproxstatin-1 co-treatment (rescue)” value (NCI-H522 cells [2]) was 85%. For the same compound, the IC50 ([3]; Fibroblast, Table 2, Mouse Embryonic Fibroblasts) was 1090 ± 460 nM, the IC50 (NCI-H522 RV-GFP cells; Homo sapiens, NCI-H522) was 2540 ± 440 nM and the IC50 (WI38 cells; Homo sapiens, WI-38, Table 2, lung tissue fibroblast, read-out: Half maximal inhibitory concentration (IC50), Normal Cell Line WI38) was 2510 ± 810 nM. The “speed of cell death (area under graph)” value (NCI-H522 cells [4]) was “induced slower cell death”, the “lipid peroxidation compared to DMSO” value (NCI-H522 cells [4]) was “induced lipid peroxidation” and the IC50 (MDA-MB-231 cells; Homo sapiens, Table 1, MDA-MB-231 breast cancer cell line, read-out: Half maximal inhibitory concentration (IC50), MDA-MB-231) was 4170 ± 390 nM. The IC50 ([5]; Homo sapiens, Table 1, NCI-H522 clone overexpressing GFP-tagged SLC7A11, read-out: Half maximal inhibitory concentration (IC50), NCI-H522 GFP-SCL7A11 #8) was 2410 ± 1160 nM, the “cell death at a single concentration” value [6] was “did not induce cell death” and the mean percentage growth [7] was 27.24.

With `C#CCCC(=O)Nc1ccc(C(=O)c2ccc(NC(=O)CO/N=C3\CC(c4csc(C#C)n4)=C(C)C3O)cc2)cc1` (stereo not drawn) [PPe, (E)-N-(4-(4-(2-(((4-(2-Ethynylthiazol-4-yl)-2-hydroxy-3-methylcyclopent-3-en-1-ylidene)amino)oxy)acetamido)benzoyl)phenyl)pent-4-ynamide] the IC50 (NCI-H522 cells [1]; Homo sapiens, NCI-H522, Table 3, probes and negative controls, read-out: IC50, NCI-H522) was 2600 ± 110 nM, the IC50 (HT-1080 cells; Homo sapiens, HT-1080, Table 3, probes and negative controls, read-out: IC50, HT-1080) was 1200 ± 10 nM and the “cell viability on liproxstatin-1 co-treatment (rescue)” value (NCI-H522 cells [2]) was 45%. For the same compound, the IC50 (MDA-MB-231 cells; Homo sapiens, MDA-MB-231, Table 3, probes and negative controls, read-out: IC50, MDA-MB-231) was 1330 ± 20 nM.

Compound `COC(=O)c1ccc([C@@H]2c3[nH]c4ccccc4c3C[C@@H](C(=O)OC)N2C(=O)CCl)cc1` [RSL3, reference compound] has an IC50 (NCI-H522 cells [1]; Table 1, NCI-H522 cancer cell line, read-out: Half maximal inhibitory concentration (IC50), NCI-H522) of 1100 ± 890 nM, an IC50 (NCI-H522 cells [1]; Table 2, read-out: Half maximal inhibitory concentration (IC50), Cancer Cell Line NCI-H522) of 1100 ± 890 nM and an IC50 (NARF2 cells; Table 1, NARF2 osteosarcoma cells) of 2460 ± 760 nM. It also gave an IC50 [8] of 140 to 2840 nM, an IC50 (HT-1080 cells; Table 1, HT-1080 fibrosarcoma cell line, read-out: Half maximal inhibitory concentration (IC50), HT-1080) of 140 ± 80 nM and an IC50 (HT-1080 cells; Table 2, read-out: Half maximal inhibitory concentration (IC50), Cancer Cell Line HT1080) of 140 ± 100 nM. It also gave an IC50 ([3]; Table 2, Mouse Embryonic Fibroblasts) of 40 ± 20 nM, an IC50 (NCI-H522 RV-GFP cells) of 310 ± 40 nM and an IC50 (WI38 cells; Table 2, lung tissue fibroblast, read-out: Half maximal inhibitory concentration (IC50), Normal Cell Line WI38) of 50 ± 10 nM. For the same compound, the IC50 (MDA-MB-231 cells; Table 1, MDA-MB-231 breast cancer cell line, read-out: Half maximal inhibitory concentration (IC50), MDA-MB-231) was 220 ± 20 nM, the “competition of PPd-labelled protein bands by known ferroptosis inducers” value [9] was “compete out the same protein bands” and the IC50 ([5]; Table 1, NCI-H522 clone overexpressing GFP-tagged SLC7A11, read-out: Half maximal inhibitory concentration (IC50), NCI-H522 GFP-SCL7A11 #8) was 2840 ± 900 nM. For the same compound, the “cell death at a single concentration” value [6] was “killed all cell lines indiscriminately”.

Compound `C#Cc1nc(C2=C(C)C(O)CC2)cs1` (racemic) [CETZOLE 1, 3-(2-Ethynylthiazol-4-yl)-2-methylcyclopent-2-en-1-ol, reference compound] has an IC50 (NCI-H522 cells [1]; Homo sapiens, NCI-H522, read-out: Half maximal inhibitory concentration (IC50), Cancer Cell Line NCI-H522) of 2500 ± 320 nM, an IC50 (NCI-H522 cells [1]; Homo sapiens, NCI-H522, read-out: Half maximal inhibitory concentration (IC50), NCI-H522) of 2560 ± 930 nM and an IC50 (NCI-H522 cells [1]; Homo sapiens, NCI-H522, read-out: IC50, NCI-H522) of 2500 ± 320 nM. For the same compound, the IC50 (NARF2 cells; Homo sapiens) was 14900 ± 1300 nM, the IC50 (HT-1080 cells; Homo sapiens, HT-1080, read-out: Half maximal inhibitory concentration (IC50), Cancer Cell Line HT1080) was 3070 ± 1300 nM and the IC50 (HT-1080 cells; Homo sapiens, HT-1080, read-out: Half maximal inhibitory concentration (IC50), HT-1080) was 3070 ± 1300 nM. It also gave an IC50 (HT-1080 cells; Homo sapiens, HT-1080, read-out: IC50, HT-1080) of 960 ± 110 nM, an IC50 ([3]; Mus musculus, Fibroblast) of 2410 ± 980 nM and an IC50 (WI38 cells; Homo sapiens, WI-38, read-out: Half maximal inhibitory concentration (IC50), Normal Cell Line WI38) of 2510 ± 40 nM. The “speed of cell death (area under graph)” value (NCI-H522 cells [4]) was “induced slower cell death”, the “lipid peroxidation compared to DMSO” value (NCI-H522 cells [4]) was “induced lipid peroxidation” and the IC50 (MDA-MB-231 cells; Homo sapiens, MDA-MB-231, read-out: Half maximal inhibitory concentration (IC50), MDA-MB-231) was 6280 ± 730 nM. The IC50 (MDA-MB-231 cells; Homo sapiens, MDA-MB-231, read-out: IC50, MDA-MB-231) was 3200 ± 200 nM, the “competition of PPd-labelled protein bands by known ferroptosis inducers” value [9] was “compete out the same protein bands” and the “competition of PPd-labelled protein bands, dose-dependent” value ([9]; three bands 25 kD to 38 kD) was “completely competed out”. It also gave an IC50 ([5]; Homo sapiens, NCI-H522, read-out: Half maximal inhibitory concentration (IC50), NCI-H522 GFP-SCL7A11 #8) of 10300 ± 3600 nM.
